Source: patent US20030216569A1, “Method of making HIV protease inhibitors” (priority 1993, published 2003)

How the values were obtained:
HIV-1 protease = HIV-1 protease (Human immunodeficiency virus type 1 group M subtype B, UniProt P04585); test: Fluorescence HIV-1 Protease Inhibitor Assay (Pandex); assay type: biochemical; parameters: made in house; host or cells: E. coli K12 L507/pHP10D (NRRL B-18560); conditions: normalized to positive control (=1.0); * = a calculated average; read-out: Fluorescence Assay IC50 in ng/mL (converted)

CC(C)(C)NC(=O)c1ccccc1C[C@@H](O)[C@@H](CSc1ccc2ccccc2c1)NC(=O)c1cccc2c1CCN2 [Example 65, [2′R-(2′R*,3′S*)]-N-t-Butyl-2-[2′-hydroxy-3′-naphth-2-ylthiomethyl-4′-aza-5′-oxo-5′-(indolin-4″-yl)pentyl] benzamide]
melting point: 83 to 84 °C
IC50 (HIV-1 protease): 687 nM

CC(C)(C)NC(=O)c1ccccc1C[C@@H](O)[C@@H](CSc1ccc2ccccc2c1)NC(=O)c1ccnc2ccccc12 [Example 66, [2′R-(2′R*,3′S*)]-N-t-Butyl-2-[2′-hydroxy-3′-naphth-2-ylthiomethyl-4′-aza-5′-oxo-5′-(quinolin-4″-yl)pentyl] benzamide]
melting point: 89 to 92 °C
IC50 (HIV-1 protease): 474 nM

Cc1c(C(=O)NC(CSc2ccc3ccccc3c2)C(O)Cc2ccccc2C(=O)NC(C)(C)C)cccc1[N+](=O)[O-] (stereo not drawn) [Example 67, [2′R-(2′R*,3′S*)]-N-t-Butyl-2-[2′-hydroxy-3′-naphth-2-hiomethyl-4′-aza-5′-oxo-5′-(2″-methyl-3″-nitrophenyl)pentyl] benzamide]
melting point: 80 to 81 °C
IC50 (HIV-1 protease): 927 nM

Cc1ccc([N+](=O)[O-])cc1C(=O)NC(CSc1ccc2ccccc2c1)C(O)Cc1ccccc1C(=O)NC(C)(C)C (stereo not drawn) [Example 68, [2′R-(2′R*,3′S*)]-N-t-Butyl-2-[2′-hydroxy-3′-naphth-2-ylthiomethyl-4′-aza-5′-oxo-5′-(3″-nitro-6″-methylphenyl)pentyl] benzamide]
melting point: 85 to 88 °C
IC50 (HIV-1 protease): 17100 nM

Cc1c(C(=O)NC(CSc2ccc3ccccc3c2)C(O)Cc2ccccc2C(=O)NC(C)(C)C)ccc(O)c1O (stereo not drawn) [Example 70, [2′R-(2′R*,3′S*)]-N-t-Butyl-2-[2′-hydroxy-3′-naphth-2-ylthiomethyl-4′-aza-5′-oxo-5′-(2″-methyl-3″,4″-dihydroxyphenyl)pentyl] benzamide]
melting point: 121 to 123 °C
IC50 (HIV-1 protease): 183 nM

CC(C)(C)NC(=O)c1ccccc1CC(O)C(CSc1ccc2ccccc2c1)NC(=O)c1ccc(N)cc1Cl (stereo not drawn) [Example 71, [2′R-(2′R*,3′S*)]-N-t-Butyl-2-[2′-hydroxy-3′-naphth-2-ylthiomethyl-4′-aza-5′-oxo-5′-(2″-chloro-4″-aminophenyl)pentyl] benzamide]
melting point: 102 to 104 °C
IC50 (HIV-1 protease): 312 nM

CC(C)(C)NC(=O)c1ccccc1CC(O)C(CSc1ccc2ccccc2c1)NC(=O)c1ccc(N)c(O)c1 (stereo not drawn) [Example 73, [2′R-(2′R*,3′S*)]-N-t-Butyl-2-[2′-hydroxy-3′-naphth-2-ylthiomethyl-4′-aza-5′-oxo-5′-(3″-hydroxy-4″-aminophenyl)pentyl] benzamide]
melting point: 119 to 122 °C
IC50 (HIV-1 protease): 3480 nM
